The source of these data is patent US20100160369A1, “S1P1 Agonists and Methods of Making And Using” (EXELIXIS, INC., priority 2008, published 2010).

Type in all cases: cell-based
Assay [1] has as its target T1, S1P1 (Homo sapiens, UniProt P21453). In words: Tango β-arrestin Recruitment Assay in U2OS cells (Assay 2b). On the set-up: linker with TEV protease (N1a) cleavage site (C). As to conditions: Tango β-arrestin Recruitment Assay. A digest of the protocol: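 Agonist EC50 from percent activity relative to 1 μM S1P efficacy control, using background-subtracted 460/530 nm emission ratios. Compounds (max 1 μM, ten 3-fold dilutions) incubated overnight at 37 °C with serum-starved S1P1 U2OS reporter cells, followed by 2 h β-lactamase reagent at room temperature.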
Target sequence in this assay (P21453 whole entry): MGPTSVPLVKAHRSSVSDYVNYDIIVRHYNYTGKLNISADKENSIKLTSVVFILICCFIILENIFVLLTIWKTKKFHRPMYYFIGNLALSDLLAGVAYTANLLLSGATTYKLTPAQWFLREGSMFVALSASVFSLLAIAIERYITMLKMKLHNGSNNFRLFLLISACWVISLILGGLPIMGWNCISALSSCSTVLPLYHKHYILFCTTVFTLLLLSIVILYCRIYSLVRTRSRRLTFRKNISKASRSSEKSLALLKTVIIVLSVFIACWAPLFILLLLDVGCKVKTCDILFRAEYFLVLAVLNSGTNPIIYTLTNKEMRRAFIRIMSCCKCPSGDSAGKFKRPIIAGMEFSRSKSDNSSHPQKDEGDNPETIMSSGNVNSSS
Target sequence in this assay (P32121 whole entry partner): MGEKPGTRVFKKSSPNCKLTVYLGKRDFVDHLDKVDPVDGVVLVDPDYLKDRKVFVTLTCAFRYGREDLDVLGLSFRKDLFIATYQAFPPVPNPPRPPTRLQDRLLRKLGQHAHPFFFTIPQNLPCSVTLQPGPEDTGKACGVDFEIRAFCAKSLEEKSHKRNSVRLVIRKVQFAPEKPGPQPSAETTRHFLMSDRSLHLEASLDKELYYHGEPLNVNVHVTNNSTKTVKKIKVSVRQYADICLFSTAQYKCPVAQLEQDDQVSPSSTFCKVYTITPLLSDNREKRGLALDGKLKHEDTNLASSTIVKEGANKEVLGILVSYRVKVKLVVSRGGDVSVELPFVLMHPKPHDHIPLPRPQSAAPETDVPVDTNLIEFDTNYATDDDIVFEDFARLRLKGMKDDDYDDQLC

Assay [2] addresses T1, S1P1. Kind of assay: Tango β-arrestin Recruitment Assay in HEK293 cells (Assay 2a). On the set-up: linker with TEV protease (N1a) cleavage site (C); host or cells: HEK293, transiently transfected. The following applies: Tango β-arrestin Recruitment Assay, read-out: Assay 2a EC50. A digest of the protocol:
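Agonist-driven β-arrestin2–TEV recruitment releases tTA to drive luciferase in transiently transfected HEK293 cells. Ten 3-fold dilutions from 10 μM top (1% DMSO), 16–18 h at 37 °C; EC50 fitted to percent activity versus DMSO background and 5 μM S1P efficacy control.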
In general terms: Recruitment of arrestin is a read-out of receptor activation apart from second messengers.
Target sequence in this assay (P21453 whole entry): as the sequence (P21453 whole entry) above
Target sequence in this assay (P32121 whole entry partner): as the sequence (P32121 whole entry partner) above

Assay [3] concerns the target T1, S1P1. In words: CNG cAMP Assay (Assay 1). The arrangement: host or cells: HEK293 cells expressing the CNG channel. The following applies: read-out: Assay 1 EC50. A digest of the protocol:
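cAMP-gated CNG membrane-potential read-out (350/590 nm, T90/T0 ratio) in S1P1/CNG HEK293 cells after 90 min with compound plus NECA 500 nM, S1P 10 nM (EC95), Ro 20-1724 25 μM. Ten 3-fold points from 10 μM, 1.8% DMSO; percent activity vs NECA-only control gives EC50.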
Target sequence in this assay (P21453 whole entry): as the sequence (P21453 whole entry) above

The mark [4] stands for this setting: footnote 1: Relative EC50 was measured, read-out: Assay 2b relative EC50.

Where a name gives a salt, the structure may show the parent alone. A value given as a limit tells only on which side of the number the result lay.

In general, EC50 refers to the concentration at which the effect is half-maximal. `OC(COc1cc(Cl)c(-c2noc(-c3cn4cc(C(F)(F)F)cc(Cl)c4n3)n2)cc1Cl)C(F)(F)F` (stereo not shown) [Entry 77]: the EC50 in assay [1] (read-out: Assay 2b EC50) and in assay [2] was no more than 0.1 µM each time.

With `CC(=O)COc1cc(Cl)c(-c2noc(-c3cn4cc(C(F)(F)F)cc(Cl)c4n3)n2)cc1Cl` [Example 182], the EC50 in assay [1] (read-out: Assay 2b EC50) and in assay [2] was no more than 0.1 µM each time. In the case of `Oc1cc(Cl)c(-c2nnc(-c3cn4cc(C(F)(F)F)cc(Cl)c4n3)s2)cc1Cl` [Example 224, 2,5-dichloro-4-{5-[8-chloro-6-(trifluoromethyl)imidazo[1,2-a]pyridin-2-yl]-1,3,4-thiadiazol-2-yl}phenol], the figures for the EC50 in assay [3] and in assay [1] (read-out: Assay 2b EC50) were no more than 0.1 µM and 0.1 to 0.5 µM, respectively. On the same counts, the results for `CC(CO)Oc1cc(Cl)c(-c2nc(-c3cn4cc(C(F)(F)F)cc(Cl)c4n3)no2)cc1Cl` (stereo not shown) [Example 227, 2-[(2,5-dichloro-4-{3-[8-chloro-6-(trifluoromethyl)imidazo[1,2-a]pyridin-2-yl]-1,2,4-oxadiazol-5-yl}phenyl)oxy]propan-1-ol] are no more than 0.1 µM and no more than 0.1 µM. On the same counts, the results for `OCC(O)COc1ccc(-c2nnc(-c3cn4cc(C(F)(F)F)cc(Cl)c4n3)s2)c(Cl)c1` (stereo not shown) [Example 245, 3-[(3-chloro-4-{5-[8-chloro-6-(trifluoromethyl)imidazo[1,2-a]pyridin-2-yl]-1,3,4-thiadiazol-2-yl}phenyl)oxy]propane-1,2-diol] are no more than 0.1 µM and 0.1 to 0.5 µM. On the same counts, the results for `CC(Oc1cc(Cl)c(-c2nnc(-c3cn4cc(C(F)(F)F)cc(Cl)c4n3)s2)cc1F)C(=O)O` (stereo not shown) [Example 250, 2-[(5-chloro-4-{5-[8-chloro-6-(trifluoromethyl)imidazo[1,2-a]pyridin-2-yl]-1,3,4-thiadiazol-2-yl}-2-fluorophenyl)oxy]propanoic acid] are no more than 0.1 µM and 0.1 to 0.5 µM.

Take `CC(CO)Oc1cc(Cl)c(-c2nnc(-c3cn4cc(C(F)(F)F)cc(Cl)c4n3)s2)cc1Cl` (stereo not shown) [Example 251, 2-[(2,5-dichloro-4-{5-[8-chloro-6-(trifluoromethyl)imidazo[1,2-a]pyridin-2-yl]-1,3,4-thiadiazol-2-yl}phenyl)oxy]propan-1-ol]: the EC50 in assay [3] and in assay [1] (read-out: Assay 2b EC50) was no more than 0.1 µM in each case. Take `NC(CO)COc1cc(Cl)c(-c2noc(-c3cn4cc(C(F)(F)F)cc(Cl)c4n3)n2)cc1Cl` (stereo not shown) [Example 303, 2-amino-3-[(2,5-dichloro-4-{5-[8-chloro-6-(trifluoromethyl)imidazo[1,2-a]pyridin-2-yl]-1,2,4-oxadiazol-3-yl}phenyl)oxy]propan-1-ol]: the EC50 in assay [1] (read-out: Assay 2b EC50) and in assay [2] was no more than 0.1 µM throughout. Take `O=C(O)C1CC1c1cc(Cl)c(-c2nnc(-c3cn4cc(C(F)(F)F)cc(Cl)c4n3)s2)cc1Cl` (stereo not shown) [Example 320, 2-(2,5-dichloro-4-{5-[8-chloro-6-(trifluoromethyl)imidazo[1,2-a]pyridin-2-yl]-1,3,4-thiadiazol-2-yl}phenyl)cyclopropanecarboxylic acid]: in assay [1] (read-out: Assay 2b EC50), the EC50 is no more than 0.1 µM. Still for that read-out and setting: to `CC(O)CNc1cc(Cl)c(-c2noc(-c3cn4cc(C(F)(F)F)cc(Cl)c4n3)n2)cc1Cl` (stereo not shown) [Example 323, 1-[(2,5-dichloro-4-{5-[8-chloro-6-(trifluoromethyl)imidazo[1,2-a]pyridin-2-yl]-1,2,4-oxadiazol-3-yl}phenyl)amino]propan-2-ol] belongs no more than 0.1 µM; to `C[C@@H](COc1cc(Cl)c(-c2noc(-c3cn4cc(C(F)(F)F)cc(Br)c4n3)n2)cc1Cl)OP(=O)(O)O` [Example 325, (1S)-2-[(4-{5-[8-bromo-6-(trifluoromethyl)imidazo[1,2-a]pyridin-2-yl]-1,2,4-oxadiazol-3-yl}-2,5-dichlorophenyl)oxy]-1-methylethyl dihydrogen phosphate], no more than 0.1 µM; to `CC(O)(COc1cc(Cl)c(-c2noc(-c3cn4cc(C(F)(F)F)cc(Cl)c4n3)n2)cc1Cl)C(=O)O` (stereo not shown) [Example 327, 3-[(2,5-dichloro-4-{5-[8-chloro-6-(trifluoromethyl)imidazo[1,2-a]pyridin-2-yl]-1,2,4-oxadiazol-3-yl}phenyl)oxy]-2-hydroxy-2-methylpropanoic acid], no more than 0.1 µM. In the case of `C[C@H](COc1cc(Cl)c(-c2noc(-c3cn4cc(C(F)(F)F)cc(Cl)c4n3)n2)cc1Cl)OP(=O)(O)O` [Example 328, (1R)-2-[(2,5-dichloro-4-{5-[8-chloro-6-(trifluoromethyl)imidazo[1,2-a]pyridin-2-yl]-1,2,4-oxadiazol-3-yl}phenyl)oxy]-1-methylethyl dihydrogen phosphate], the EC50 in assay [1] (read-out: Assay 2b EC50) was no more than 0.1 µM. On the same count and under the same terms, the value for `Cc1cc(CCC(=O)O)c(Cl)cc1-c1nc(-c2cn3cc(C(F)(F)F)cc(Cl)c3n2)no1` [Example 329, 3-(2-chloro-4-{3-[8-chloro-6-(trifluoromethyl)imidazo[1,2-a]pyridin-2-yl]-1,2,4-oxadiazol-5-yl}-5-methylphenyl)propanoic acid] was no more than 0.1 µM; that for `C[C@H](COc1cc(Cl)c(-c2noc(-c3cn4cc(C(F)(F)F)cc(Cl)c4n3)n2)cc1Cl)OS(=O)(=O)O` [Example 331, (1R)-2-[(2,5-dichloro-4-{5-[8-chloro-6-(trifluoromethyl)imidazo[1,2-a]pyridin-2-yl]-1,2,4-oxadiazol-3-yl}phenyl)oxy]-1-methylethyl hydrogen sulfate] was no more than 0.1 µM; that for `CS(=O)(=O)NCc1ccc(-c2nnc(-c3cn4cc(C(F)(F)F)cc(Cl)c4n3)s2)c(Cl)c1` [Example 332, N-[(3-chloro-4-{5-[8-chloro-6-(trifluoromethyl)imidazo[1,2-a]pyridin-2-yl]-1,3,4-thiadiazol-2-yl}phenyl)methyl]methanesulfonamide] was no more than 0.1 µM. For the molecule `CS(=O)(=O)CCOc1cc(Cl)c(-c2noc(-c3cn4cc(C(F)(F)F)cc(Cl)c4n3)n2)cc1Cl` [Example 333, 8-chloro-2-[3-(2,5-dichloro-4-{[2-(methylsulfonyl)ethyl]oxy}phenyl)-1,2,4-oxadiazol-5-yl]-6-(trifluoromethyl)imidazo[1,2-a]pyridine], the concentration giving a half-maximal response (EC50) in assay [1] (setting [4]) fell in the range of 0.1 to 0.5 µM. In the case of `N[C@@H](CO)COc1cc(Cl)c(-c2nnc(-c3cn4cc(C(F)(F)F)cc(Cl)c4n3)s2)cc1F` [Example 335, (2S)-2-Amino-3-[(5-chloro-4-{5-[8-chloro-6-(trifluoromethyl)imidazo[1,2-a]pyridin-2-yl]-1,3,4-thiadiazol-2-yl}-2-fluorophenyl)oxy]propan-1-ol], the concentration giving a half-maximal response (EC50) in assay [1] (read-out: Assay 2b EC50) was no more than 0.1 µM. Still for that read-out and setting: to `NCC(O)COc1cc(Cl)c(-c2nnc(-c3cn4cc(C(F)(F)F)cc(Cl)c4n3)s2)cc1Cl` (stereo not shown) [Example 336, 1-amino-3-[(2,5-dichloro-4-{5-[8-chloro-6-(trifluoromethyl)imidazo[1,2-a]pyridin-2-yl]-1,3,4-thiadiazol-2-yl}phenyl)oxy]propan-2-ol] belongs no more than 0.1 µM; to `Nc1cc(Cl)c(-c2noc(-c3cn4cc(C(F)(F)F)cc(Cl)c4n3)n2)cc1Cl` [Example 337, 2,5-dichloro-4-{5-[8-chloro-6-(trifluoromethyl)imidazo[1,2-a]pyridin-2-yl]-1,2,4-oxadiazol-3-yl}aniline], 0.1 to 0.5 µM; to `Oc1cc(Cl)c(-c2nnc(-c3cn4cc(C(F)(F)F)cc(Cl)c4n3)s2)cc1F` [Example 338, 5-chloro-4-{5-[8-chloro-6-(trifluoromethyl)imidazo[1,2-a]pyridin-2-yl]-1,3,4-thiadiazol-2-yl}-2-fluorophenol], 0.1 to 0.5 µM. Same read-out and setting: the value for `NC(CO)COc1cc(Cl)c(-c2nnc(-c3cn4cc(Br)ccc4n3)s2)cc1F` (stereo not shown) [Example 339, 2-amino-3-({4-[5-(6-bromoimidazo[1,2-a]pyridin-2-yl)-1,3,4-thiadiazol-2-yl]-5-chloro-2-fluorophenyl}oxy)propan-1-ol] was no more than 0.1 µM. Regarding `CC(N)COc1cc(Cl)c(-c2nnc(-c3cn4cc(C(F)(F)F)ccc4n3)s2)cc1Cl` (stereo not shown) [Example 340, 1-[(2,5-dichloro-4-{5-[6-(trifluoromethyl)imidazo[1,2-a]pyridin-2-yl]-1,3,4-thiadiazol-2-yl}phenyl)oxy]propan-2-amine], the EC50 in assay [1] (setting [4]) lay in the range of 5 to 10 µM.

As to `COc1cc(Cl)c(-c2noc(-c3cn4cc(C(F)(F)F)cc(Cl)c4n3)n2)cc1Cl` [Example 341], the EC50 in assay [1] (setting [4]) lay in the range of 0.5 to 1 µM. With `N[C@H](CO)COc1cc(Cl)c(-c2nnc(-c3cn4cc(C(F)(F)F)cc(Cl)c4n3)s2)cc1Cl` [Example 420, (2R)-2-amino-3-[(2,5-dichloro-4-{5-[8-chloro-6-(trifluoromethyl)imidazo[1,2-a]pyridin-2-yl]-1,3,4-thiadiazol-2-yl}phenyl)oxy]propan-1-ol], the EC50 in assay [1] (read-out: Assay 2b EC50) was 0.1 to 0.5 µM. Take `NC(CO)COc1cc(Cl)c(-c2nnc(-c3cn4ccc(C(F)(F)F)cc4n3)s2)cc1F` (stereo not shown) [Example 421, 2-amino-3-[(5-chloro-2-fluoro-4-{5-[7-(trifluoromethyl)imidazo[1,2-a]pyridin-2-yl]-1,3,4-thiadiazol-2-yl}phenyl)oxy]propan-1-ol]: the concentration for a half-maximal effect (EC50) in assay [1] (read-out: Assay 2b EC50) was in the range of 0.1 to 0.5 µM.
